Data reported in patent US20110154874A1, “MIXTURE FOR THE TREATMENT OF UREA-CONTAINING FERTILIZERS” (FERTIVA GmbH, priority 2007, published 2011).
Where “and” joins values, the source holds several entries; their conditions need not be identical. Equal entries are not always repeated.

Assays:
[1] = Storage test over 30 days, NBPT loss on treated granulated urea (HPLC analysis); assay type: physicochemical; settings: active compound applied to urea
Procedure: In a further storage test over 30 days at 30° C. and an atmospheric humidity of 60%, the NBPT losses measured (HPLC analysis) were as indicated below. At the beginning of the storage test, the NBPT was applied in a concentration of 0.12% by weight, based on the fertilizer, in a solution having the composition indicated below. The carrier fertilizer used was granulated urea.

[2] = tested on: Chinese cabbage; settings: in vivo

Row | Structure (SMILES) | stabilizing action on the active compound [1] | Fresh mass of shoots 21 days after planting [2]
1 | CN1CCCC1=O [N-methylpyrrolidone (NMP), N-methylpyrrolidone] | no stabilizing action | –
2 | NC(N)=O [Urea] | – | 14.3 g/pot and 20.05 g/pot and 11.65 g/pot
